Assay results as given in US6376666B1 (Nauchno-Issledovatelsky Institut Farmakologii Rossiiskoi …, priority 1994, dated 2002).

Legend:
Type in all cases: in vivo
[1] = test system: male outbred mice; test: potentiation of sleep induced by sodium thiopental
Protocol: The possible hypnotic effects of choosen drugs was estimated according to method of potentiation of sleep induced by sodium thiopental. The male outbred mice weighing 20-25 g were injected i.p. with sodium thiopental at dose of 70 mg/kg. Two parameters were estimated: latent time of sleeping and duration of sleep. The used compounds were administered i.p. 30 min prior injection of sodium thiopental.

[2] = test system: Balb/c mice; test: open-field test, Balb/c mice (passive type of emotional-stress reaction); parameters: key to Total activity: sum of all locomotor activity counts (crossings + rearings) in 3 min; details: for Number of defecations / Peripheral activity (crossings) / Total activity / Central activity (crossings) / Vertical activity (rearings): M ± mx; for effect on the behavior (locomotor activity) of Balb/c mice in open-field test, in words: i.p., screening
Method in brief: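 Male mice, 20-22 g, dosed i.p. in water 30 min before a 3-min open-field test after 1 min in darkness; peripheral, central, rearing and total activity plus defecations recorded; Student t-test. Anxiolysis read as Balb/c activation, sedation as C57B1/6 inhibition.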

[3] = test system: outbred male rats; test: conflict Vogel test (punished licking of water); details: M ± mx
Protocol: The study of anxiolytic activity of chosen compounds was carried out in the experiments with outbred male rats weighing 180-200 g in standard conflict Vogel' procedure [Voronina T. A. et al., in: “Phenazepam”, Naukova Dumka, Kiev, 1982, p.89, 93, 146]. The main aim of the initial step of experiments was the training of rats to develop the feeling of thirst with following experience of water licking from bottle in the experimental chamber. The animals were deprived of water for 24 hours and were placed in the test chamber for 5-min adaptation period during which they had free access to the drinking bottle. After another 24 h deprivation period the rats were placed again in the test chamber and were allowed to drink water for 5 sec. Immediately afterwards drinking attempts were punished by electric shock (0,5 mA). Under this collision of drinking and protective reflexes the extremal situation was developed. In this situation the anxiety of punishment prevented the licking process. The number of shocks received throughout a 5-min experimental session was recorded.

[4] = test system: outbred male mice; test: rotarod test (myorelaxant activity); details: cut-off 120 sec
Protocol: The myorelaxant activity of choosen compounds were studied in the outbred male mice weighing 22-25 g in rotarod test [Voronina T. A. et al., in: “Phenazepam”, Naukova Dumka, Kiev, 1982, p.145]. The animals were placed on the horizontal rotarod (D=2 cm) calibrated for a fixed speed of 4 rpm. According to the rotarod experimental protocol, normal motor coordination was defined by the ability of the animals to remain on the rotarod for an arbitrarily selected time of 120 sec.

[5] = test system: C57B1/6 mice; test: open-field test, C57B1/6 mice (active type of emotional-stress reaction); details: i.p., doses that activate Balb/c mice
Excerpt: The main point of this approach consists in comparative analysis of the behavioural effects of tested compounds in two inbred strains of mice Balb/c and C57B1/6 with different hereditary types of emotional-stress reactions (ESR). The anxiolytic effect was estimated as the activation of the locomotor activity of animals with “passive” type of ESR (Balb/c mice). The main index describing the sedative properties of tested drugs was the inhibition of the locomotor activity of mice with “active” type of ESR (C57B1/6 strain). The anxioselectivity was evaluated according to coincidence of doses range which activated or inhibited the behavior of mice of different strains. Earlier this approach has been successfully used for estimation of anxioselective activity of such known drugs as phenazepam [Seredenin S. B. et al., Bull.Exp.Biol.Med., 1979, v.88, N7, p.38; Seredenin S. B. et al., Ann.Inst.Super.Sanita, 1990, v.26, N1, p.81-88], mexidol [Seredenin S. B. et al., Khimiko-Farmatsevt.Zhurnal, 1987, N2, p.134; Vironina T. A., Seredenin S. B., Ann.Inst.Super.Sanita, 1988, v.24, N3, p.461-466] and gidazepam [Seredenin S. B. et al., in: “Gidazepam” Kiev, Naukova Dumka, 1992, p.92; Seredenin S. B., Blednov Yu. A., Phys.Chem.Biol.Med., 1993, v.1, N1, p.53-60].
Male C57B1/6 and Balb/c mice (“Stolbovaya” animal farm), weighing 20-22 g were used. The animals were housed in a separate animal room in groups of ten and maintained on 12 h light-dark cycle (light from 8.00 till 20.00) with free access to standard food and water during two weeks before experiment. Testing was performed between 9.00 and 13.00. Every used compound was administered intraperitoneally in water solutions 30 min before testing (0,1 ml solution per 10 g of weight). The “open-field” apparatus consisted of cylinder closed from one end, illuminated by four 75 W lamps fixed to the walls 100 cm above the floor. The “open-field” apparatus was 100 cm in diameter and white-painted; the floor was marked with 3 black circles and some radial lines divided the floor into 16 peripheral and 8 central segments. 30 min after injection each animal was placed in the same peripheral square on the floor for 3 min of testing after 1 min exposure in the dark chamber. The following behavior variables were recorded: 1) the number of crossings in the peripheral area (peripheral activity); 2) the number of crossings in the central segments (central activity); 3) the number of rearings (vertical activity); 4) the emotionality was measured as the number of defecations during the test. The sum of all types of locomotor activity was marked as total activity. The t-Student test was used for statistical analysis.

[6] = 0.5 mg/kg i.p. 30 min before thiopental 70 mg/kg i.p.
[7] = 1.0 mg/kg i.p. 30 min before thiopental 70 mg/kg i.p.
[8] = 5.0 mg/kg i.p. 30 min before thiopental 70 mg/kg i.p.
[9] = 10.0 mg/kg i.p. 30 min before thiopental 70 mg/kg i.p.

SMILES: C=CCSc1nc2ccc(OCC)cc2[nH]1 [IV, 2-Allylthio-5-ethoxybenzimidazole]
- duration of sleep after sodium thiopental [1, 6]: 42.8 ± 13.5 min
- latent time of sleep after sodium thiopental [1, 6]: 3.0 ± 0.3 s
- duration of sleep after sodium thiopental [1, 7]: 32.5 ± 7.9 min
- latent time of sleep after sodium thiopental [1, 7]: 2.7 ± 0.3 s
- duration of sleep after sodium thiopental [1, 8]: 50.7 ± 11.0 min
- latent time of sleep after sodium thiopental [1, 8]: 2.8 ± 0.3 s
- duration of sleep after sodium thiopental [1, 9]: 45.1 ± 10.6 min
- latent time of sleep after sodium thiopental [1, 9]: 2.5 ± 0.1 s
- Number of defecations ([2]; 0.1 mg/kg i.p.): 0.6 ± 0.5
- Peripheral activity (crossings) ([2]; 0.1 mg/kg i.p.): 12.6 ± 2.6
- Total activity ([2]; 0.1 mg/kg i.p.): 12.6 ± 2.6
- Peripheral activity (crossings) ([2]; 1.0 mg/kg i.p.): 11.4 ± 2.3
- Total activity ([2]; 1.0 mg/kg i.p.): 11.4 ± 2.3
- Number of defecations ([2]; 5.0 mg/kg i.p.): 1.7 ± 0.8
- Peripheral activity (crossings) ([2]; 5.0 mg/kg i.p.): 13.6 ± 3.5
- Total activity ([2]; 5.0 mg/kg i.p.): 13.6 ± 3.5
- Number of defecations ([2]; 10.0 mg/kg i.p.): 3.0 ± 0.7
- Peripheral activity (crossings) ([2]; 10.0 mg/kg i.p.): 9.5 ± 1.9
- Total activity ([2]; 10.0 mg/kg i.p.): 9.5 ± 1.9
- Number of defecations ([2]; 20.0 mg/kg i.p.): 2.5 ± 0.7
- Peripheral activity (crossings) ([2]; 20.0 mg/kg i.p.): 8.9 ± 2.0
- Total activity ([2]; 20.0 mg/kg i.p.): 8.9 ± 2.0
- effect on the behavior (locomotor activity) of Balb/c mice in open-field test, in words [2]: able to activate the behavior of Balb/c mice
- number of punished lickings (shocks received in 5-min session) ([3]; 1.0 mg/kg i.p.): 29.7 ± 5.3
- number of punished lickings (shocks received in 5-min session) ([3]; 5.0 mg/kg i.p.): 31.0 ± 5.6
- number of punished lickings (shocks received in 5-min session) ([3]; 10.0 mg/kg i.p.): 35.8 ± 7.8
- number of punished lickings (shocks received in 5-min session) ([3]; 20.0 mg/kg i.p.): 62.3 ± 19.5
- time of remaining on the rotarod ([4]; 0.1 mg/kg): 120 + 0 sec
- time of remaining on the rotarod ([4]; 1.0 mg/kg): 120 + 0 sec
- time of remaining on the rotarod ([4]; 5.0 mg/kg): 120 + 0 sec
- time of remaining on the rotarod ([4]; 10.0 mg/kg): 120 + 0 sec
- time of remaining on the rotarod ([4]; 20.0 mg/kg): 120 + 0 sec
- effect on locomotor activity of C57B1/6 mice in open-field test, in words [5]: without any changes in locomotor activity

SMILES: Cc1cc2nc(SCCN3CCCCC3)[nH]c2cc1C [XIV, 2-[2-(Piperidino)ethylthio]-5,6-dimethylbenzimidazole]
- duration of sleep after sodium thiopental [1, 6]: 91.0 ± 17.8 min
- latent time of sleep after sodium thiopental [1, 6]: 2.5 ± 0.5 s
- latent time of sleep after sodium thiopental [1, 7]: 2.5 ± 0.2 s
- duration of sleep after sodium thiopental [1, 8]: 86.4 ± 13.9 min
- latent time of sleep after sodium thiopental [1, 8]: 2.2 ± 0.2 s
- duration of sleep after sodium thiopental [1, 9]: 70.6 ± 9.0 min
- latent time of sleep after sodium thiopental [1, 9]: 2.9 ± 0.4 s
- Central activity (crossings) ([2]; 0.1 mg/kg i.p.): 1.1 ± 0.7
- Number of defecations ([2]; 0.1 mg/kg i.p.): 1.3 ± 0.5
- Peripheral activity (crossings) ([2]; 0.1 mg/kg i.p.): 27.0 ± 6.3
- Total activity ([2]; 0.1 mg/kg i.p.): 28.2 ± 7.1
- Vertical activity (rearings) ([2]; 0.1 mg/kg i.p.): 0.1 ± 0.1
- Central activity (crossings) ([2]; 0.5 mg/kg i.p.): 4.7 ± 2.7
- Number of defecations ([2]; 0.5 mg/kg i.p.): 1.0 ± 0.4
- Peripheral activity (crossings) ([2]; 0.5 mg/kg i.p.): 44.4 ± 9.2
- Total activity ([2]; 0.5 mg/kg i.p.): 49.4 ± 10.7
- Vertical activity (rearings) ([2]; 0.5 mg/kg i.p.): 0.3 ± 0.3
- Central activity (crossings) ([2]; 1.0 mg/kg i.p.): 0.9 ± 0.8
- Number of defecations ([2]; 1.0 mg/kg i.p.): 2.9 ± 0.7
- Peripheral activity (crossings) ([2]; 1.0 mg/kg i.p.): 38.7 ± 4.8
- Total activity ([2]; 1.0 mg/kg i.p.): 39.7 ± 5.7
- Vertical activity (rearings) ([2]; 1.0 mg/kg i.p.): 0.1 ± 0.1
- Central activity (crossings) ([2]; 5.0 mg/kg i.p.): 2.8 ± 1.8
- Number of defecations ([2]; 5.0 mg/kg i.p.): 0.7 ± 0.7
- Peripheral activity (crossings) ([2]; 5.0 mg/kg i.p.): 58.7 ± 7.2
- Total activity ([2]; 5.0 mg/kg i.p.): 61.3 ± 9.0
- Number of defecations ([2]; 10.0 mg/kg i.p.): 2.0 ± 0.9
- Peripheral activity (crossings) ([2]; 10.0 mg/kg i.p.): 67.8 ± 11.1
- Total activity ([2]; 10.0 mg/kg i.p.): 67.8 ± 11.1
- Central activity (crossings) ([2]; 20.0 mg/kg i.p.): 3.4 ± 3.4
- Number of defecations ([2]; 20.0 mg/kg i.p.): 0.1 ± 0.1
- Peripheral activity (crossings) ([2]; 20.0 mg/kg i.p.): 17.3 ± 8.0
- Total activity ([2]; 20.0 mg/kg i.p.): 20.8 ± 9.6
- Vertical activity (rearings) ([2]; 20.0 mg/kg i.p.): 0.1 ± 0.1
- effect on the behavior (locomotor activity) of Balb/c mice in open-field test, in words [2]: able to activate the behavior of Balb/c mice
- number of punished lickings (shocks received in 5-min session) ([3]; 1.0 mg/kg i.p.): 31.6 ± 7.6
- number of punished lickings (shocks received in 5-min session) ([3]; 5.0 mg/kg i.p.): 32.9 ± 5.8
- number of punished lickings (shocks received in 5-min session) ([3]; 10.0 mg/kg i.p.): 36.0 ± 9.4
- number of punished lickings (shocks received in 5-min session) ([3]; 20.0 mg/kg i.p.): 42.3 ± 10.8
- time of remaining on the rotarod ([4]; 0.1 mg/kg): 120 + 0 sec
- time of remaining on the rotarod ([4]; 1.0 mg/kg): 120 + 0 sec
- time of remaining on the rotarod ([4]; 5.0 mg/kg): 120 + 0 sec
- time of remaining on the rotarod ([4]; 10.0 mg/kg): 120 + 0 sec
- time of remaining on the rotarod ([4]; 20.0 mg/kg): 120 + 0 sec
- effect on locomotor activity of C57B1/6 mice in open-field test, in words [5]: without any changes in locomotor activity
